ChEMBL document CHEMBL1128898, “Sch 51048, a novel broad-spectrum orally active antifungal agent: Synthesis and preliminary structure-activity profile” (1995)

Columns and labels:
Format in all cases: functional
Settings in all cases: inhaled or nasal
[1] = system: Mus musculus; assay: Compound was tested for percentage survival of immunocompromized CF-1 mice infected by inhalation with Aspergillus flavus strain ND134 at dose 50 mg/Kg
[2] = system: Mus musculus; assay: Compound was tested for percentage survival of normal CF-1 Mice infected […] albicans strain C-65 colony forming units at dose 25 mg/Kg
[3] = system: Mus musculus; assay: Compound was tested for percentage survival of immunocompromized CF-1 mice infected by inhalation with Aspergillus flavus strain ND134 at dose 100 mg/Kg
[4] = system: Mus musculus; assay: Compound was tested for percentage survival of normal CF-1 Mice infected […] albicans strain C-65 colony forming units at dose 50 mg/Kg
[5] = system: Mus musculus; assay: Compound was tested for percentage survival of immunocompromized CF-1 mice infected […] albicans strain C-65 colony forming units at dose 25 mg/Kg
[6] = system: Mus musculus; assay: Compound was tested for percentage survival of immunocompromized CF-1 mice infected […] albicans strain C-65 colony forming units at dose 50 mg/Kg
[7] = system: Mus musculus; assay: Compound was tested for percentage survival of immunocompromized CF-1 mice infected by inhalation with Aspergillus fumigatus strain ND142 conidia at dose 100 mg/Kg
[8] = system: Mus musculus; assay: Compound was tested for percentage survival of immunocompromized CF-1 mice infected by inhalation with Aspergillus fumigatus strain ND142 conidia at dose 50 mg/Kg
[9] = system: Mus musculus; assay: Compound was tested for percentage survival of normal CF-1 Mice infected […] albicans strain C-65 colony forming units at dose 1 mg/kg
[10] = system: Mus musculus; assay: Compound was tested for percentage survival of normal CF-1 Mice infected […] albicans strain C-65 colony forming units at dose 10 mg/Kg
[11] = system: Mus musculus; assay: Compound was tested for percentage survival of immunocompromized CF-1 mice infected […] albicans strain C-65 colony forming units at dose 10 mg/Kg

| SMILES | survival at 50 mg/kg [1] [%] | survival at 25 mg/kg [2] [%] | survival at 100 mg/kg [3] [%] | survival at 50 mg/kg [4] [%] | survival at 25 mg/kg [5] [%] | survival at 50 mg/kg [6] [%] | survival at 100 mg/kg [7] [%] | survival at 50 mg/kg [8] [%] | survival at 1 mg/kg [9] [%] | survival at 10 mg/kg [10] [%] | survival at 10 mg/kg [11] [%] |
| --- | --- | --- | --- | --- | --- | --- | --- | --- | --- | --- | --- |
| O=c1n(-c2ccc(N3CCN(c4ccc(OC[C@@H]5CC[C@@](Cn6cncn6)(c6ccc(F)cc6F)C5)cc4)CC3)cc2)cnn1C1CCCC1 | 40 | 50 | 50 | 70 | – | – | – | – | – | – | – |
| CCC(C)n1ncn(-c2ccc(N3CCN(c4ccc(OC[C@H]5CO[C@](Cn6cncn6)(c6cc(F)cc(F)c6)O5)cc4)CC3)cc2)c1=O (some centres undefined) | – | 20 | – | 30 | 0 | 0 | – | – | – | – | – |
| CC(C)n1ncn(-c2ccc(N3CCN(c4ccc(OC[C@@H]5CC[C@@](Cn6cncn6)(c6ccc(F)cc6F)C5)cc4)CC3)cc2)c1=O | – | – | – | – | – | – | 10 | 10 | – | – | – |
| CCC(CC)n1ncn(-c2ccc(N3CCN(c4ccc(OC[C@@H]5CO[C@@](Cn6cncn6)(c6ccc(F)cc6F)C5)cc4)CC3)cc2)c1=O | 60 | 100 | – | – | 30 | 50 | – | 70 | 80 | 100 | 20 |
| CCC(C)n1ncn(-c2ccc(N3CCN(c4ccc(OC[C@@H]5CO[C@@](Cn6cncn6)(c6ccc(F)cc6F)C5)cc4)CC3)cc2)c1=O (single isomer, unassigned) | 80 | 90 | 90 | 100 | 40 | 40 | 30 | 10 | – | 80 | 30 |
| OC(Cn1cncn1)(Cn1cncn1)c1ccc(F)cc1F [FLUCONAZOLE] | – | 100 | – | – | 40 | – | – | – | 0 | 90 | 30 |
| CCC(C)n1ncn(-c2ccc(N3CCN(c4ccc(OC[C@H]5CO[C@](Cn6cncn6)(c6ccc(Cl)cc6Cl)O5)cc4)CC3)cc2)c1=O (some centres undefined) [ITRACONAZOLE] | – | 0 | 20 | 40 | 0 | 20 | 10 | – | – | – | – |
